Target: T1, PI3Kγ (recombinant p101/p110γ protein) (Homo sapiens, UniProt P48736)
T1 construct: HA; made in house; host or cells: Spodoptera frugiperda (Sf9) cells, baculovirus co-infection
Assay: PI3Kγ In Vitro Kinase Assay
Type: biochemical
Details: purified recombinant p101/p110γ with G protein β1/γ2 subunits; 20 μM ATP, [γ-32P-ATP]; 25 μM PIP2 lipid micelles; 20 minutes at room temperature
Method in brief: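 Baculovirus/Sf9-expressed p101/p110γ (~2.7 nM) with Gβ1/γ2 (~57.7 nM) in HEPES/NaCl/EGTA/DTT buffer; 20 μM ATP plus [γ-32P]ATP, micelles of 25 μM PIP2, 300 μM PE, 10 mM MgCl2. Reactions ran 20 minutes at room temperature; radiolabelled PIP3 captured on glass-fibre filters and counted for IC50.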

T1 sequence (P48736 whole entry, species assumed): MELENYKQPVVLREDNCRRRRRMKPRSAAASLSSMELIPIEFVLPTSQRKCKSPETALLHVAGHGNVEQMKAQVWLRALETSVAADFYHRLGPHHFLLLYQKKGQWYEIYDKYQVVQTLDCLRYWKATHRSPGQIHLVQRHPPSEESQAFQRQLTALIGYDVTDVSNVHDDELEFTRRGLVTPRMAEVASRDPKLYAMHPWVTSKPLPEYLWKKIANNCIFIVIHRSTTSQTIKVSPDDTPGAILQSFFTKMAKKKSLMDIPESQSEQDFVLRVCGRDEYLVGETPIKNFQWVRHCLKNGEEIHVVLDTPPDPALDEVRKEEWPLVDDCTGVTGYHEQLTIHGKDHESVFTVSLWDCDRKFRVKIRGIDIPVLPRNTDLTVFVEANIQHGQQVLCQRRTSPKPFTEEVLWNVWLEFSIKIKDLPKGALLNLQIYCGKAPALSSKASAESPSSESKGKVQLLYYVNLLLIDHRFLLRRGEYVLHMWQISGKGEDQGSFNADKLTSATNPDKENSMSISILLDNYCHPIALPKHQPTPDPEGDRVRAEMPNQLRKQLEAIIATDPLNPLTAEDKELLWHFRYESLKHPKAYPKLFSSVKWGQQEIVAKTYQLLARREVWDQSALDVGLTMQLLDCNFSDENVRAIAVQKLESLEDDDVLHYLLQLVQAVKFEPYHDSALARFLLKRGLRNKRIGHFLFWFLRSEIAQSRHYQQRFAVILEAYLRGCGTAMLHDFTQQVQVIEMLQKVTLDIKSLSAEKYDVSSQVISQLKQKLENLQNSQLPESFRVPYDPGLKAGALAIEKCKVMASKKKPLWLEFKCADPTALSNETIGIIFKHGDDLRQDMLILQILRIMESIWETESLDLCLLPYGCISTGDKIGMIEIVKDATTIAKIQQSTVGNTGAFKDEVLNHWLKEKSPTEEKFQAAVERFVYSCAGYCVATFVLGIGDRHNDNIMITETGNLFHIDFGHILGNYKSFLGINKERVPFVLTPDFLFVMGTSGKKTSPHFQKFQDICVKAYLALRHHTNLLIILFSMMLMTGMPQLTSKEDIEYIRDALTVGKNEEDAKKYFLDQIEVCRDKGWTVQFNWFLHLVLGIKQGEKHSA
T1 sequence (Q8WYR1 whole entry partner, species assumed): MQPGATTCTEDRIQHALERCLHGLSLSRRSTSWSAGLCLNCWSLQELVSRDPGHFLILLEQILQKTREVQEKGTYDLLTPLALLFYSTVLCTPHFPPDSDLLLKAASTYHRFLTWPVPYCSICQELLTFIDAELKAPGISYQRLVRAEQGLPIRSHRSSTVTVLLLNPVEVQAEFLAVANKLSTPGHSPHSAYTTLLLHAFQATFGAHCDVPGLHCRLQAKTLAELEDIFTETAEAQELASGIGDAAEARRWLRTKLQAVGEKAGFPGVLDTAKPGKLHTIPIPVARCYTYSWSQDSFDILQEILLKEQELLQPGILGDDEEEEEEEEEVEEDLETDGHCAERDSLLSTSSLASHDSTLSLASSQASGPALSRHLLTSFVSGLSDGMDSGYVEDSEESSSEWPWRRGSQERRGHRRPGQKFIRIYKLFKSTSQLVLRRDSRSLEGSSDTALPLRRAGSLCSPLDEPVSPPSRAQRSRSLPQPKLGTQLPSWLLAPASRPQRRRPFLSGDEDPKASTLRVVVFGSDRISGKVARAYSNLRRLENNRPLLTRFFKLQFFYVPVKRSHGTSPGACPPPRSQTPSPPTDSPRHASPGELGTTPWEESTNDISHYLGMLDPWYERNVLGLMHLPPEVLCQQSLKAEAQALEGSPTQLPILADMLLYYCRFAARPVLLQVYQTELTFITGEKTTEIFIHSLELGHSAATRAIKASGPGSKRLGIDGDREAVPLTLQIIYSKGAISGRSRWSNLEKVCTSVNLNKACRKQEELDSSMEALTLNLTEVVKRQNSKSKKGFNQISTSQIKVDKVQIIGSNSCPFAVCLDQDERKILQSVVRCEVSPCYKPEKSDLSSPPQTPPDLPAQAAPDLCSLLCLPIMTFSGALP

Structure (SMILES) | IC50 [nM]
COc1cc2c(Oc3ccc(C4CCCCC4)cc3N)c(C(=O)Nc3nn[nH]n3)sc2cc1C [Example B.71, 3-(2-Amino-4-cyclohexyl-phenoxy)-5-methoxy-6-methyl-benzo[b]thiophene-2-carboxylic acid (2H-tetrazol-5-yl)-amide] | 275
COc1cc2sc(C(=O)Nc3nnn[nH]3)c(OCc3cccc(Br)c3)c2cc1OC [Example C.2, 3-(3-Bromo-benzyloxy)-5,6-dimethoxy-benzo[b]thiophene-2-carboxylic acid (1H-tetrazol-5-yl)-amide] | 346
COc1cc2sc(C(=O)Nc3nnn[nH]3)c(OCc3ccc(F)c(F)c3)c2cc1OC [Example C.3, 3-(3,4-Difluoro-benzyloxy)-5,6-dimethoxy-benzo[b]thiophene-2-carboxylic acid (1H-tetrazol-5-yl)-amide] | 3630
COc1cc2sc(C(=O)Nc3nnn[nH]3)c(OCc3ccc(-c4ccccc4)cc3)c2cc1OC [Example C.4, 3-(Biphenyl-4-ylmethoxy)-5,6-dimethoxy-benzo[b]thiophene-2-carboxylic acid (1H-tetrazol-5-yl)-amide] | 2650
COc1cc2sc(C(=O)Nc3nnn[nH]3)c(OCc3cccc(C(F)(F)F)c3)c2cc1OC [Example C.5, 5,6-Dimethoxy-3-(3-trifluoromethyl-benzyloxy)-benzo[b]thiophene-2-carboxylic acid (1H-tetrazol-5-yl)-amide] | 1620
COc1cc(COc2c(C(=O)Nc3nnn[nH]3)sc3cc(OC)c(OC)cc23)cc(OC)c1 [Example C.6, 3-(3,5-Dimethoxy-benzyloxy)-5,6-dimethoxy-benzo[b]thiophene-2-carboxylic acid (1H-tetrazol-5-yl)-amide] | 1520
COc1cc2sc(C(=O)Nc3nnn[nH]3)c(OCc3ccc(C(C)(C)C)cc3)c2cc1OC [Example C.7, 3-(4-tert-Butyl-benzyloxy)-5,6-dimethoxy-benzo[b]thiophene-2-carboxylic acid (1H-tetrazol-5-yl)-amide] | 986
COc1cc2sc(C(=O)Nc3nnn[nH]3)c(OCc3c(F)ccc(F)c3F)c2cc1OC [Example C.8, 5,6-Dimethoxy-3-(2,3,6-trifluoro-benzyloxy)-benzo[b]thiophene-2-carboxylic acid (1H-tetrazol-5-yl)-amide] | 564
COc1cc2sc(C(=O)Nc3nnn[nH]3)c(O[C@H](C)Cc3ccccc3)c2cc1OC [Example C.10, 5,6-Dimethoxy-3-((R)-1-methyl-2-phenyl-ethoxy)-benzo[b]thiophene-2-carboxylic acid (1H-tetrazol-5-yl)-amide] | 1800
COc1cc2sc(C(=O)Nc3nnn[nH]3)c(OCc3cccnc3)c2cc1OC [Example C.11, 5,6-Dimethoxy-3-(pyridin-3-ylmethoxy)-benzo[b]thiophene-2-carboxylic acid (1H-tetrazol-5-yl)-amide] | 1480
COc1cc2sc(C(=O)Nc3nnn[nH]3)c(OCc3cccc(Oc4ccccc4)c3)c2cc1OC [Example C.12, 5,6-Dimethoxy-3-(3-phenoxy-benzyloxy)-benzo[b]thiophene-2-carboxylic acid (1H-tetrazol-5-yl)-amide] | 1160
COc1cc2sc(C(=O)Nc3nnn[nH]3)c(OCC(c3ccccc3)c3ccccc3)c2cc1OC [Example C.13, 3-(2,2-Diphenyl-ethoxy)-5,6-dimethoxy-benzo[b]thiophene-2-carboxylic acid (1H-tetrazol-5-yl)-amide] | 970
COc1cc2sc(C(=O)Nc3nnn[nH]3)c(OCc3ccccn3)c2cc1OC [Example C.14, 5,6-Dimethoxy-3-(pyridin-2-ylmethoxy)-benzo[b]thiophene-2-carboxylic acid (1H-tetrazol-5-yl)-amide] | 885
COc1cc2sc(C(=O)Nc3nnn[nH]3)c(OCCc3cccc4ncccc34)c2cc1OC [Example C.15, 5,6-Dimethoxy-3-(2-quinolin-5-yl-ethoxy)-benzo[b]thiophene-2-carboxylic acid (1H-tetrazol-5-yl)-amide] | 757
COc1ccc(CCOc2c(C(=O)Nc3nnn[nH]3)sc3cc(OC)c(OC)cc23)cc1OC [Example C.16, 3-[2-(3,4-Dimethoxy-phenyl)-ethoxy]-5,6-dimethoxy-benzo[b]thiophene-2-carboxylic acid (1H-tetrazol-5-yl)-amide] | 740
COc1cc2sc(C(=O)Nc3nnn[nH]3)c(OCCc3cccc4ccccc34)c2cc1OC [Example C.17, 5,6-Dimethoxy-3-(2-naphthalen-1-yl-ethoxy)-benzo[b]thiophene-2-carboxylic acid (1H-tetrazol-5-yl)-amide] | 715
COc1cc2sc(C(=O)Nc3nnn[nH]3)c(OCc3ccncc3)c2cc1OC [Example C.18, 5,6-Dimethoxy-3-(pyridin-4-ylmethoxy)-benzo[b]thiophene-2-carboxylic acid (1H-tetrazol-5-yl)-amide] | 450
COc1cc2sc(C(=O)Nc3nnn[nH]3)c(OCc3cccc(N(C)C)c3)c2cc1OC [Example C.19, 3-(3-Dimethylamino-benzyloxy)-5,6-dimethoxy-benzo[b]thiophene-2-carboxylic acid (1H-tetrazol-5-yl)-amide] | 450
COc1cc2sc(C(=O)Nc3nnn[nH]3)c(OCc3ccccc3OCC3CCCCC3)c2cc1OC [Example C.20, 3-(2-Cyclohexylmethoxy-benzyloxy)-5,6-dimethoxy-benzo[b]thiophene-2-carboxylic acid (1H-tetrazol-5-yl)-amide] | 410
COc1cc2sc(C(=O)Nc3nnn[nH]3)c(OCCc3cccc4c3CCCC4)c2cc1OC [Example C.21, 5,6-Dimethoxy-3-[2-(5,6,7,8-tetrahydro-naphthalen-1-yl)-ethoxy]-benzo[b]thiophene-2-carboxylic acid (1H-tetrazol-5-yl)-amide] | 300
COc1cc2sc(C(=O)Nc3nnn[nH]3)c(OCc3cccc4ccccc34)c2cc1OC [Example C.22, 5,6-Dimethoxy-3-(naphthalen-1-ylmethoxy)-benzo[b]thiophene-2-carboxylic acid (1H-tetrazol-5-yl)-amide] | 290
COc1cc2sc(C(=O)Nc3nnn[nH]3)c(OC[C@@H](C)c3ccccc3)c2cc1OC [Example C.23, 5,6-Dimethoxy-3-((S)-2-phenyl-propoxy)-benzo[b]thiophene-2-carboxylic acid (1H-tetrazol-5-yl)-amide] | 255
COc1cc2sc(C(=O)Nc3nnn[nH]3)c(OCc3cccc4c3CCCC4)c2cc1OC [Example C.24, 5,6-Dimethoxy-3-(5,6,7,8-tetrahydro-naphthalen-1-ylmethoxy)-benzo[b]thiophene-2-carboxylic acid (1H-tetrazol-5-yl)-amide] | 255

Now those with a lower IC50, led by results:

IC50 [nM] | Structure (SMILES)
230 | COc1cc2sc(C(=O)Nc3nnn[nH]3)c(OCc3cccc(OC4CCCC4)c3)c2cc1OC [Example C.25, 3-(3-Cyclopentyloxy-benzyloxy)-5,6-dimethoxy-benzo[b]thiophene-2-carboxylic acid (1H-tetrazol-5-yl)-amide]
215 | COc1cc2sc(C(=O)Nc3nnn[nH]3)c(OCc3cccc(OCC4CCCCC4)c3)c2cc1OC [Example C.26, 3-(3-Cyclohexylmethoxy-benzyloxy)-5,6-dimethoxy-benzo[b]thiophene-2-carboxylic acid (1H-tetrazol-5-yl)-amide]
185 | COc1cc2sc(C(=O)Nc3nnn[nH]3)c(OCCc3ccccc3)c2cc1OC [Example C.1, 5,6-Dimethoxy-3-phenethyloxy-benzo[b]thiophene-2-carboxylic acid (1H-tetrazol-5-yl)-amide]
160 | COc1cc2c(Oc3ccc(C4CCCCC4)cc3OC)c(C(=O)Nc3nn[nH]n3)sc2cc1C [Example B.72, 3-(2-Methoxy-4-cyclohexyl-phenoxy)-5-methoxy-6-methyl-benzo[b]thiophene-2-carboxylic acid (2H-tetrazol-5-yl)-amide]
17 | COc1cc2c(Oc3ccc(C4CCCCC4)cc3[N+](=O)[O-])c(C(=O)Nc3nn[nH]n3)sc2cc1C [Example B.70, 5-Methoxy-6-methyl-3-(2-nitro-4-cyclohexyl-phenoxy)-benzo[b]thiophene-2-carboxylic acid (2H-tetrazol-5-yl)-amide]
13 | COc1cc2c(Oc3ccc(C4CCCCC4)cc3Cl)c(C(=O)Nc3nn[nH]n3)sc2cc1C [Example B.73, 3-(2-Chloro-4-cyclohexyl-phenoxy)-5-methoxy-6-methyl-benzo[b]thiophene-2-carboxylic acid (2H-tetrazol-5-yl)-amide]
12 | COc1cc2c(Oc3ccc(C4CCCCC4)cc3Br)c(C(=O)Nc3nn[nH]n3)sc2cc1C [Example B.74, 3-(2-Bromo-4-cyclohexyl-phenoxy)-5-methoxy-6-methyl-benzo[b]thiophene-2-carboxylic acid (2H-tetrazol-5-yl)-amide]
8 | COc1cc2c(Oc3ccc(C4CCC5(CC4)OCCO5)cc3)c(C(=O)Nc3nn[nH]n3)sc2cc1C [Example B.68, 3-[4-(1,4-Dioxa-spiro[4.5]dec-8-yl)-phenoxy]-5-methoxy-6-methyl-benzo[b]thiophene-2-carboxylic acid (2H-tetrazol-5-yl)-amide]
6 | COc1cc2c(Oc3ccc(C4CCCCC4)cc3C#N)c(C(=O)Nc3nn[nH]n3)sc2cc1C [Example B.75, 3-(2-Cyano-4-cyclohexyl-phenoxy)-5-methoxy-6-methyl-benzo[b]thiophene-2-carboxylic acid (2H-tetrazol-5-yl)-amide]
4 | COc1cc2c(Oc3ccc(C4CCS(=O)(=O)CC4)cc3)c(C(=O)Nc3nn[nH]n3)sc2cc1C [Example B.69, 3-[4-(1,1-Dioxo-hexahydro-1λ^6-thiopyran-4-yl)-phenoxy]-5-methoxy-6-methyl-benzo[b]thiophene-2-carboxylic acid (2H-tetrazol-5-yl)-amide]

Reference: patent publication US20040259926A1, “3-Aryloxy and 3-heteroaryloxy substituted benzo[b]thiophenes as therapeutic agents” (priority 2003, published 2004)
